The subject of one assay is A549. The assay is described as follows: Antiproliferative activity against human A549 cells assessed as reduction in cell viability for 72 hrs by MTT assay. As to conditions: A549, 72 h. A general note: Formazan colour is commonly taken as a measure of viable cells.
The test system of assay [1] is KM12. Kind of assay: Antiproliferative activity against human KM12 cells assessed as reduction in cell viability for 72 hrs by MTT assay. As to conditions: KM12, 72 h.
Assay [2] deals with High affinity nerve growth factor receptor (Homo sapiens, UniProt P04629). Kind of assay: Inhibition of TRKA (unknown origin) incubated for 1 hr by mobility shift assay.
High affinity nerve growth factor receptor, sequence (P04629 whole entry): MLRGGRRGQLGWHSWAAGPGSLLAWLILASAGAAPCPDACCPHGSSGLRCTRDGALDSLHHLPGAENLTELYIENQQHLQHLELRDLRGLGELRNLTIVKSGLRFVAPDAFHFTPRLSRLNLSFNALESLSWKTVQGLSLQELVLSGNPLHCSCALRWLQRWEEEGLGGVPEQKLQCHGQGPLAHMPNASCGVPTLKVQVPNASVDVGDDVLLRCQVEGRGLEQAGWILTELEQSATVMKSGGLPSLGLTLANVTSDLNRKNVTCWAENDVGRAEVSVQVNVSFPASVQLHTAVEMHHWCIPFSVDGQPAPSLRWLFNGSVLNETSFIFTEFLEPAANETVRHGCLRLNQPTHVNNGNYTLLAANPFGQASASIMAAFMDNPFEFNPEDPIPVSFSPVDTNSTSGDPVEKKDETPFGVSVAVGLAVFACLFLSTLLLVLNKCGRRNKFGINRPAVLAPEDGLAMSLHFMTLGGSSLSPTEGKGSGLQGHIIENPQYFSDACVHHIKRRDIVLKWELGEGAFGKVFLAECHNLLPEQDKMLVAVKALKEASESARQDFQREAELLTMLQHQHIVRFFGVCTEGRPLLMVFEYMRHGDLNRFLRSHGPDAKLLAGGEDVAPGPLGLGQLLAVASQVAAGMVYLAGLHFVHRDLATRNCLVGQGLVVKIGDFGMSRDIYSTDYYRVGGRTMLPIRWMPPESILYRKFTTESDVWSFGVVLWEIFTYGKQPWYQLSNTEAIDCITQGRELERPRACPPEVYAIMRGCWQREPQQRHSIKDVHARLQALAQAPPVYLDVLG
The target in assay [3] is NT-3 growth factor receptor (Homo sapiens, UniProt Q16288). Kind of assay: Inhibition of TRKC (unknown origin) incubated for 1 hr by mobility shift assay.
NT-3 growth factor receptor, sequence (Q16288 whole entry): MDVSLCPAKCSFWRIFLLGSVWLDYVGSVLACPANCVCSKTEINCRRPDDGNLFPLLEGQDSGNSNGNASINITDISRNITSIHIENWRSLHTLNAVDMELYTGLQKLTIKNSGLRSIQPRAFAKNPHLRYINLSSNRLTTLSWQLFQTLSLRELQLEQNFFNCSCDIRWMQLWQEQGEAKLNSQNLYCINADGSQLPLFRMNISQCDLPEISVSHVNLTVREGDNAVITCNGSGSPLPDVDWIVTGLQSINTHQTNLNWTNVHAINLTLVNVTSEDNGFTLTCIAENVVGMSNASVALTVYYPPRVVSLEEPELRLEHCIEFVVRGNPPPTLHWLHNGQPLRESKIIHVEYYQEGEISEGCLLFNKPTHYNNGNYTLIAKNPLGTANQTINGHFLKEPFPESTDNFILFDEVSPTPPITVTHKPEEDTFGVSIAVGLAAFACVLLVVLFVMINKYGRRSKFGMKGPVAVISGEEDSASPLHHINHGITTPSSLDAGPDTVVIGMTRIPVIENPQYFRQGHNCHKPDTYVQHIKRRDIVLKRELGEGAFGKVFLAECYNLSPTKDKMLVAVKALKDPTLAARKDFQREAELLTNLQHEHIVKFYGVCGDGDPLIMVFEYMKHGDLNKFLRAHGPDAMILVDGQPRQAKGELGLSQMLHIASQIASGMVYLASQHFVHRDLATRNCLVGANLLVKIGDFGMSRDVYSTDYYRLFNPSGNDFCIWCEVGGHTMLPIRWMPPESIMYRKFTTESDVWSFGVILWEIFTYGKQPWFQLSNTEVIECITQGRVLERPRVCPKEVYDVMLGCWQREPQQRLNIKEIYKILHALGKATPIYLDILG
Assay [4] deals with BDNF/NT-3 growth factors receptor (Homo sapiens, UniProt Q16620). Kind of assay: Inhibition of TRKB (unknown origin) incubated for 1 hr by mobility shift assay.
BDNF/NT-3 growth factors receptor, sequence (Q16620 whole entry): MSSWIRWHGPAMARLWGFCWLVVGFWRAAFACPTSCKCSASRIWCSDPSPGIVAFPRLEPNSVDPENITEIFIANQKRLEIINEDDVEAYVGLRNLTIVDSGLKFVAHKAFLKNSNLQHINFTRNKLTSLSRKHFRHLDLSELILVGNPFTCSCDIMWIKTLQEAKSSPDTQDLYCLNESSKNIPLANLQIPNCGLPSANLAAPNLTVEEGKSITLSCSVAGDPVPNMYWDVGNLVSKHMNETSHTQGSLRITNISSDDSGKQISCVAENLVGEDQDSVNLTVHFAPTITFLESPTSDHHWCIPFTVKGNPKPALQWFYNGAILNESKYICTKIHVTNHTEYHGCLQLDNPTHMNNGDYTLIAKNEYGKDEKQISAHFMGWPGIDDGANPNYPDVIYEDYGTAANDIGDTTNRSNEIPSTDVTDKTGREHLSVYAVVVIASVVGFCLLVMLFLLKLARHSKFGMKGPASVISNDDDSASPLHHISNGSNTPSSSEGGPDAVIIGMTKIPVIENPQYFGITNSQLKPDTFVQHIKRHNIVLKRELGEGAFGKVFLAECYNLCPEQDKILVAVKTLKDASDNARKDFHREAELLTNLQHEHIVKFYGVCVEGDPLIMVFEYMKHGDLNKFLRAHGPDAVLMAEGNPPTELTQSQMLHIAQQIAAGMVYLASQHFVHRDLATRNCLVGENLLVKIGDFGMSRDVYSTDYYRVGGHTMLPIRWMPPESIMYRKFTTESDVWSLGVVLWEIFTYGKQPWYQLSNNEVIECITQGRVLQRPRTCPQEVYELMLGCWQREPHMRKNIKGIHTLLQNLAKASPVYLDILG
In assay [5] the test system is KM12. Kind of assay: Inhibition of colony formation in human KM12 cells assessed as decrease in colony count at 75 nM incubated for 72 hrs by crystal violet staining based assay. The assay is classed as functional, cell-based.

The source made the active and inactive calls. The calls are words filed in the database; no cut-off is given here.

In the case of `O=C(Nc1cccc(-c2csc(N3CCCC3)n2)c1)c1cc(F)cc(F)c1`, the IC50 – broadly, the concentration needed to halve the response being measured – in the assay with A549 turned out to be 0.17 µM; in the assay with KM12 [1], 16.5 µM.

For `O=C(Nc1cccc(-n2cc(CN3CCSCC3)nn2)c1)c1cc(F)cc(F)c1`, the IC50 in the assay with A549 is > 10 µM; in the assay with KM12 [1], 12.3 µM.

On to `O=C(Nc1cccc(-n2cc(CNC3CC3)nn2)c1)c1cc(F)cc(F)c1`, for which the figures for the concentration for half-maximal inhibition (IC50) in the assay on A549 and in the assay on KM12 [1] were > 10 µM and 5.21 µM, respectively.

In the case of `O=C(Nc1cccc(-c2csc(N3CCC[C@H]3CO)n2)c1)c1cc(F)cc(F)c1`, the IC50 with A549 was found to be 0.39 µM; in the assay on KM12 [1] it was 8.16 µM.

For `CN(C)Cc1cn(-c2cccc(NC(=O)c3cc(F)cc(F)c3)c2)nn1`, the half-maximal inhibitory concentration (IC50) in the assay with A549 is > 10 µM; in the assay on KM12 [1], 17.5 µM.

Take `O=C(Nc1cccc(-n2cc(CN3CCCC3)nn2)c1)c1cc(F)cc(F)c1`: the IC50 with A549 was > 10 µM; with KM12 [1], 8.02 µM.

With `O=C(Nc1cccc(-n2cc(CN3CCS(=O)(=O)CC3)nn2)c1)c1cc(F)cc(F)c1`, the half-inhibitory concentration (IC50) with A549 is > 10 µM; in the assay with KM12 [1] it was 12.2 µM.

As for `O=C(Nc1cccc(-c2csc(N3CCOCC3)n2)c1)c1cc(F)cc(F)c1`, the results for the IC50 with A549 and in the assay on KM12 [1] were 0.27 µM and 9.63 µM, respectively.

On to `O=C(Nc1cccc(-n2cc(CNC3CCCC3)nn2)c1)c1cc(F)cc(F)c1`, for which the half-maximal inhibitory concentration (IC50) is > 10 µM in the assay on A549 and 3.83 µM in the assay on KM12 [1].

Regarding `CN1CCN(c2nc(-c3cccc(NC(=O)c4cc(F)cc(F)c4)c3)cs2)CC1`, the IC50 in the assay with A549 was determined as 0.72 µM; with KM12 [1] it was 14 µM.

As for `O=C(Nc1cccc(-c2csc(N3CCN(CCO)CC3)n2)c1)c1cc(F)cc(F)c1`, the 50% inhibitory concentration (IC50) in assay [2] was > 0.1 µM; in assay [3], > 0.1 µM; in the assay on A549 it was 0.51 µM; in assay [4], > 0.1 µM; in the assay on KM12 [1], 7.25 µM.

Turning to `O=C(Nc1cccc(-c2csc(NCCO)n2)c1)c1cc(F)cc(F)c1`, the IC50 with A549 was 0.55 µM; in the assay with KM12 [1], 17.1 µM.

On to `CN1CCN(c2ccc(C(=O)Nc3n[nH]c4ccc(Cc5cc(F)cc(F)c5)cc34)c(NC3CCOCC3)c2)CC1`, for which the inhibition entry with KM12 [5] is “Active”.

With `CN1CCN(c2ccc(NCc3cn(-c4cccc(CNc5cc(F)cc(F)c5)c4)nn3)cc2C(=O)N2CCCC2)CC1`, the IC50 in the assay on A549 is > 10 µM; in the assay with KM12 [1], 0.95 µM.

`CN(C)c1nc(-c2cccc(NC(=O)c3cc(F)cc(F)c3)c2)cs1`: the IC50 with A549 is 1.21 µM; with KM12 [1], 28.8 µM.

As to `CN1CCN(c2ccc(NCc3cn(-c4cccc(CNc5cc(F)cc(F)c5)c4)nn3)cc2C(=O)N(C)C)CC1`, the IC50 in the assay on A549 was > 10 µM; in the assay with KM12 [1], 1.71 µM.

For `O=C(Nc1cccc(-c2csc(N3CCC(O)CC3)n2)c1)c1cc(F)cc(F)c1`, the IC50 with A549 was found to be 0.21 µM; in the assay with KM12 [1], 7.57 µM.

For the compound `CN1CCN(c2ccc(NCc3cn(-c4cccc(CNc5cc(F)cc(F)c5)c4)nn3)cc2C(=O)N2CCCCC2)CC1`, the IC50 in the assay with A549 is > 10 µM; in the assay with KM12 [1], 0.76 µM.

With `CN1CCN(c2ccc(NCc3cn(-c4cccc(NCc5cc(F)cc(F)c5)c4)nn3)cc2C(=O)N2CCOCC2)CC1`, the half-inhibitory concentration (IC50) is > 10 µM with A549 and 0.63 µM in the assay on KM12 [1].

For the origin of these results see ChEMBL document CHEMBL5360525, “Design, synthesis and anti-tumor efficacy of novel phenyl thiazole/triazole derivatives as selective TrkA inhibitors” (Bioorg Med Chem, 2022).
